The record followed here is US9855338B2, “Polyglutamate-amino acid conjugates and methods” (priority 2005, dated 2018).

Like-named read-outs stand apart in the source and are kept apart here.

The subject of data set [1] is murine melanoma cells (B16F0) tumor. As to the kind of experiment: In vivo tumor tissue uptake, syngeneic tumor model, cryostat sections. To be noted: 24 hours after intravenous administration, nu/nu mice. On the procedure: Animals: Nu/nu mice, female, 6-8 weeks (22-25 g). Solitary tumors were produced by injecting 2×10^5 murine melanoma cells (B16F0) to the right thigh subcutaneously. 5-7 days later when the tumor reached about 500 mm^3, the PGA-97-A-Texas Red or Texas Red dye was injected intravenously to the tumor.
PGA-97-A-Texas Red and Texas Red were separately dissolved in DPBS and were filtrated through a 0.2 μm filter before being administrated to the animals. 100 μl of PGA-97-A-Texas Red (TR loading at 2.5%) or Texas Red at 0.1-10 mM was intravenously injected to the tumor using the syngeneic tumor model in Example 19. Tumors were dissected, embedded under optimal cutting temperature and frozen in liquid nitrogen. Cryostat sections (6-15 μm) were made and were fixed with 4% paraformaldehyde with 0.03M of sucrose on ice for 10-30 min. The sections were washed 2 times with DPBS, stained with Hoechst 33342 (1 μg/ml) for 10 minutes, and washed again with DPBS. The sections were then mounted with a fluorescent mounting medium (DakoCytomation) and covered with a coverslip. The cryostat sections of the tumor were observed under laser scan confocal microscopy.
Photographs of the cryostat cross-section of in vivo tumor tissue uptake of PGA-97-A-Texas Red and Texas Red dye alone were taken. For each, three different cross-sections were taken for a total of six images. […]

For another data set, the system named is B16F0 melanoma cells. As to the kind of experiment: In vitro cellular uptake, fluorescence microscopy. Type of data set: cell-based, murine. On the procedure:
B16F0 cells were purchased from ATCC (CRL-6322, ATCC American Type Culture Collection, Rockville, Md.) and were grown in Dulbecco's modified Eagle's medium (DMEM) with 10% fetal bovine serum and 100 units/mL penicillin. The cells were grown at 37° C. in 5% CO2 environment. The culture medium was removed and discarded. The cells were rinsed with Dulbecco Phosphate Buffer Solution (DPBS), Trypsin-ethylenediaminetetra-acetic acid (EDTA) solution (0.5 ml) was added, and the cells were observed under an inverted microscope to make sure that they were dispersed. Complete growth medium (6.0 to 8.0 ml) was added, and the cells were aspirated by gently pipetting. The cell suspension in appropriate aliquots was transferred to new culture plates. […]
PGA-97-A-Texas Red and Texas Red dye (TR) were separately dissolved in DPBS. […] The treated cells were examined under an OLYMPUS fluorescence microscope, and the excitation and emission wavelengths were measured at 591 and 612 nm, respectively.
Three sample containers containing approximately the same number of B16F0 melanoma cells were incubated with PGA-97-A-Texas Red at 1 μM, PGA-97-A-Texas Red at 0.1 μM, and Texas Red alone at 10 μM, respectively, for 24 hours. Photographs of the in vitro cellular uptake of each container were taken with the camera on an Olympus fluorescence microscope system. […]

The procedure of data set [2]:
Each polymer (5 mg) was added into a pH buffer (1 mL) and the mixture was sonificated for 2 minutes. Then the mixture was allowed to settle at room temperature for 30 minutes. Solubility was observed by eye and recorded on the scale of 1 to 10, where 1 is highly insoluble, 5 is a cloudy suspension, and 10 is a highly clear solution.

As to Texas Red, the “accumulation of Texas red dye in tumor cells in vivo” value in data set [1] is given as “not”. The “cellular uptake of Texas red dye” value in the data set on B16F0 melanoma cells (0.1 μM to 10 μM, 8-24 hours, fluorescence microscope) was “not”. Further, in the data set with B16F0 melanoma cells (10 μM, 24 hours, B16F0 melanoma cells), the “cells that were red (cellular uptake of dye)” value came to 0%.

For the substance “Poly-(γ-glutamyl)-poly-L-glutamine [PGPG-19,800]”, the Solubility in data set [2] (pH 2), in data set [2] (pH 3), in data set [2] (pH 4), in data set [2] (pH 5), in data set [2] (pH 6) and in data set [2] (pH 7) was 10 each time. The Solubility in data set [2] (pH 7.4) is 10.
